The source of these data is ChEMBL document CHEMBL1152560, “Substituted 2-arylbenzothiazoles as kinase inhibitors: hit-to-lead optimization” (Bioorg Med Chem, 2009).

Assay [1] deals with Calcium/calmodulin-dependent protein kinase kinase 2 (Homo sapiens) (UniProt Q96RR4). Kind of assay: Residual activity of CAMKK2 at 1 uM by microplate scintillation counting.
The target in assay [2] is T1, G protein-coupled receptor kinase 3 (Homo sapiens) (UniProt P35626).
T1 sequence (whole entry): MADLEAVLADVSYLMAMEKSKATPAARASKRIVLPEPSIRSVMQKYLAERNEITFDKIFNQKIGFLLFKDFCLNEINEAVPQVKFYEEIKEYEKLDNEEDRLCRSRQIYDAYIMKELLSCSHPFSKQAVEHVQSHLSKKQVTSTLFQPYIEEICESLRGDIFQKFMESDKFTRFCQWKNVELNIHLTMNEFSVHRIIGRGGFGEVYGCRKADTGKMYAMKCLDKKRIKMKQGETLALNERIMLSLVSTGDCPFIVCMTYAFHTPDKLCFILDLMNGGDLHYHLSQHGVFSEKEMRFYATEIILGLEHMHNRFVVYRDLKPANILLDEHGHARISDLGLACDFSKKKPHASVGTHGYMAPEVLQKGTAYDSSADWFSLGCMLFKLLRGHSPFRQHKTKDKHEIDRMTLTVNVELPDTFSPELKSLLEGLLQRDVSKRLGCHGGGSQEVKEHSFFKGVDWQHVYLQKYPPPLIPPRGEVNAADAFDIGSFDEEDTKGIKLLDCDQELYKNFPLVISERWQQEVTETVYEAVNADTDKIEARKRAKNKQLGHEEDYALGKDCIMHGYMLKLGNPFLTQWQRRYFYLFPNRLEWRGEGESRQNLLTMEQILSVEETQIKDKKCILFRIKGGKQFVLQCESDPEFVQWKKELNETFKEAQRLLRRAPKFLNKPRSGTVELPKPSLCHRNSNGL
Kind of assay: Residual activity of GRK3 at 1 uM by microplate scintillation counting.

In assay [3] the target is T2, Tyrosine-protein kinase Tec (Homo sapiens) (UniProt P42680).
T2 sequence (whole entry): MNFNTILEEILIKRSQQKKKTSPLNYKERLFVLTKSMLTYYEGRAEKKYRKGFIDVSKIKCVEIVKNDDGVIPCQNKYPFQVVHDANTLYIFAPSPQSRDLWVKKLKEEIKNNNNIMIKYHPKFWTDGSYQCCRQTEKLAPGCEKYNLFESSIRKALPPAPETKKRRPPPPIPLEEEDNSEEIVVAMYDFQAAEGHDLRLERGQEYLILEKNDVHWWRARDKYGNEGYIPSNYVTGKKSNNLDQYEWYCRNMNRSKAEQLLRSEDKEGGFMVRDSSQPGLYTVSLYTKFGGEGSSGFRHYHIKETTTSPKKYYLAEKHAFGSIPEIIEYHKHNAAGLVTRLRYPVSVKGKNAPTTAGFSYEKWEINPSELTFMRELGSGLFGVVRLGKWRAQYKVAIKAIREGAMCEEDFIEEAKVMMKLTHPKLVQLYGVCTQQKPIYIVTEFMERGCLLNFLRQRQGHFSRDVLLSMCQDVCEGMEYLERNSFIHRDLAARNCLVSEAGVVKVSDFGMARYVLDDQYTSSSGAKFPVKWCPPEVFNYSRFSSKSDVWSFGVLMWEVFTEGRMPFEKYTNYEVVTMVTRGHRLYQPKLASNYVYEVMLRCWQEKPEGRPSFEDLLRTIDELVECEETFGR
Kind of assay: Residual activity of TEC at 0.1 uM by microplate scintillation counting.

The target of assay [4] is Serine/threonine-protein kinase 33 (Homo sapiens) (UniProt Q9BYT3). In words: Residual activity of STK33 at 0.1 uM by microplate scintillation counting.
Assay [5] addresses T3, Aurora kinase C (Homo sapiens) (UniProt Q9UQB9).
T3 sequence (whole entry): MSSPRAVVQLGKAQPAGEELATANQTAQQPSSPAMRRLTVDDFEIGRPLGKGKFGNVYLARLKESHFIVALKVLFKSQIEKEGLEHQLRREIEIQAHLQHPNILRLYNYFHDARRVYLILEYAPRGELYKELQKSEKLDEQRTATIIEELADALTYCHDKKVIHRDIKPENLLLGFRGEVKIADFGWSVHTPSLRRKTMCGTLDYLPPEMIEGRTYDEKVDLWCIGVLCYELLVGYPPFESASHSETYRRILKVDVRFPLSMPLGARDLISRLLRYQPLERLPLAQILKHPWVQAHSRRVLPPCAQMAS
In words: Residual activity of Aurora-C at 0.1 uM by microplate scintillation counting.

The target in assay [6] is Tyrosine-protein kinase SYK (Homo sapiens) (UniProt P43405). Kind of assay: Residual activity of SYK at 10 uM by microplate scintillation counting.
The target of assay [7] is T4, Protein kinase C iota type (Homo sapiens) (UniProt P41743).
T4 sequence (whole entry): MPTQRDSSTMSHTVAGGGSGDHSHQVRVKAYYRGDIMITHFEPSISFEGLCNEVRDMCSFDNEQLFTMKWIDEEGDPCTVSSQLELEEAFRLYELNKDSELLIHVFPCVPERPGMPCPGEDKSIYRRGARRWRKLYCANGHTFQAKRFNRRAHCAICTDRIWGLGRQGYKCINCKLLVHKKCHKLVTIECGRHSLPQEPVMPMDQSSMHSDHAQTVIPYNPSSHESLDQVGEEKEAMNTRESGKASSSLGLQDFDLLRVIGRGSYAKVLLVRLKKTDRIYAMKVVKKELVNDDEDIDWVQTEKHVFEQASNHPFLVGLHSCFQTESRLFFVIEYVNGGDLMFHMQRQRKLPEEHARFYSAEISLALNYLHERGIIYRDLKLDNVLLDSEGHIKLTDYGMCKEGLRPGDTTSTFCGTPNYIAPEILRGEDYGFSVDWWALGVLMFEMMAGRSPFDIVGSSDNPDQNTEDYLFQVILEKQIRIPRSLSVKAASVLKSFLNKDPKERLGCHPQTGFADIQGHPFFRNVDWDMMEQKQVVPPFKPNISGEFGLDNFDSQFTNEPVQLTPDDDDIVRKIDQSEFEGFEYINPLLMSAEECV
Kind of assay: Residual activity of PKCiota at 10 uM by microplate scintillation counting.

Assay [8] addresses Mitogen-activated protein kinase 11 (Homo sapiens) (UniProt Q15759). Kind of assay: Residual activity of p38beta at 10 uM by microplate scintillation counting.
For assay [9], the system named is Tyrosine-protein kinase ABL1 (Homo sapiens), P00519 [T315I]. In words: Residual activity of ABL1 T315I mutant at 10 uM by microplate scintillation counting.
Assay [10] can be described thus: Residual activity of PKA at 10 uM by microplate scintillation counting.

Mitogen-activated protein kinase 11 (Homo sapiens), sequence (Q15759 whole entry): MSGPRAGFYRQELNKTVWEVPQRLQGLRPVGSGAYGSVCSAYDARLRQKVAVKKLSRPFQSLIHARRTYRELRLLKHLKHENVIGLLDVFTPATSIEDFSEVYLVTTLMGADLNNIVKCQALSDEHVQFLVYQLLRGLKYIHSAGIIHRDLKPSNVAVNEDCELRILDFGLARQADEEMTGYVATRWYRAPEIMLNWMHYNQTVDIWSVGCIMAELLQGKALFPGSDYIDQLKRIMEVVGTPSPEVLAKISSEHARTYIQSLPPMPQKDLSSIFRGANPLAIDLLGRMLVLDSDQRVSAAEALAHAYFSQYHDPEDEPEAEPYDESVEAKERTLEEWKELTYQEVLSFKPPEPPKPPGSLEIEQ
Calcium/calmodulin-dependent protein kinase kinase 2 (Homo sapiens), sequence (Q96RR4 2-588 limits assumed): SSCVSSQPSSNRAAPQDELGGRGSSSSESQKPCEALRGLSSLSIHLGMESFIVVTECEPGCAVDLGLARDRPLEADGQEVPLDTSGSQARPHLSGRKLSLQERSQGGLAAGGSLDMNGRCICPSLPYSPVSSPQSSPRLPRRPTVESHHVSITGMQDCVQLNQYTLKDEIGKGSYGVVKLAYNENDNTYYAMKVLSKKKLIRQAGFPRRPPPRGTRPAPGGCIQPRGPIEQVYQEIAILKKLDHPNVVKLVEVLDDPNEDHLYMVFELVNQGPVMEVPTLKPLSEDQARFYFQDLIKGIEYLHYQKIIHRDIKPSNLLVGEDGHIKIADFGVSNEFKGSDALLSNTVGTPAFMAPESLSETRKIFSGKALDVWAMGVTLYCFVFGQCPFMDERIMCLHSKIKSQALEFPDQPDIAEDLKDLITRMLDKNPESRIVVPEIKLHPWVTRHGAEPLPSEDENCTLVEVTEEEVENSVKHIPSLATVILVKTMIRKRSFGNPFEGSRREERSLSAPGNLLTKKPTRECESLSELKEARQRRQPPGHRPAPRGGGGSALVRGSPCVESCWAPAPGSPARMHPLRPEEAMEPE
Serine/threonine-protein kinase 33 (Homo sapiens), sequence (Q9BYT3 whole entry, looked up): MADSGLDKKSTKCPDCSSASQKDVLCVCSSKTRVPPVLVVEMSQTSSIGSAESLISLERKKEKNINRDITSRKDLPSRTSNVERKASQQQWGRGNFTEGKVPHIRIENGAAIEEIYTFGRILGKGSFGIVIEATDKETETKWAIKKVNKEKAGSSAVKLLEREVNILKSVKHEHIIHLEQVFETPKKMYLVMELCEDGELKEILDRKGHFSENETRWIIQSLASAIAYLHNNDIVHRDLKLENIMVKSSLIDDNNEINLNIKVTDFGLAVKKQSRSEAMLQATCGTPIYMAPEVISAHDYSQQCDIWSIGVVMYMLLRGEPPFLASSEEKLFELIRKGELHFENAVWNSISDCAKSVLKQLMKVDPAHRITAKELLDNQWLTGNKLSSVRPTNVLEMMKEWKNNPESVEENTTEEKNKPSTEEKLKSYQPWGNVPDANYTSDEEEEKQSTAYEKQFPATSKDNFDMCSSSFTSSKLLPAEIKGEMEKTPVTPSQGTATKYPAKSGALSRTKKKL

In the case of `COc1cc2c(Oc3ccc(-c4nc5ccccc5s4)cc3)ncnc2cc1OCCCN1CCN(C)CC1`, the residual activity worked out at 91% in assay [1]; 102% in [2]; 105% in [3]; 81% in assay [4]; 42% in assay [5]; 146% in assay [6]. Also, the residual activity amounted to 44% in assay [7], 350% in [8], 44% in assay [9] and 53% in assay [10].

Turning to `COc1cc2c(Oc3ccc(-c4nc5ccccc5s4)cc3)ncnc2cc1OCCCN1CCCC1`, the residual activity amounted to 85% in assay [1]; 98% in [2]; 98% in [3]; 96% in [4]; 42% in assay [5]; 162% in assay [6]. Besides, the residual activity is 51% in [7], 337% in assay [8], 43% in assay [9] and 78% in assay [10].

For `COc1cc2c(Oc3ccc(-c4nc5ccccc5s4)cc3F)ncnc2cc1OCCCN1CCN(C)CC1`, the residual activity in assay [1] amounted to 90%; in assay [2], 103%; in [3] it was 96%; in assay [4] it was 85%; in [5] it was 48%; in assay [6], 63%. Further, the residual activity was 46% in assay [7], 337% in [8], 31% in assay [9] and 57% in assay [10].
